Reference: patent US20240158393A1, “PYRIDONE COMPOUNDS AND METHODS OF USE” (Exelixis, Inc., priority 2021, published 2024)
Counter-ions that a name gives are not always drawn.

Key:
[1] = target: T1, Human Met (Homo sapiens, UniProt P08581); assay: Human Met kinase assay (33P radiometric / HTRF KinEase); assay type: biochemical; details: protocols of Examples D-1 and/or D-2; read-out: c-Met IC50
T1 construct: Human MET (residues 956-1390)
In short: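 Two formats gave IC50s by curve fitting. HTRF KinEase used MET residues 956-1390 with 1 μM biotin-peptide and 3.0 μM ATP (Km) for 40 min at room temperature, ten doses in 3% DMSO, 665/620 nm read. The 33P transfer assay used mutant Met R974-S1390 A1209G/V1290L (3.4 nM), 10 μM ATP, 250 μM peptide, pH 7.0, 40 min, nine doses from 1 μM.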

[2] = target: T2, Human KDR (Homo sapiens, UniProt P35968); assay: Human KDR kinase assay (33P radiometric / HTRF KinEase); assay type: biochemical; details: protocols of Examples B-1 and/or B-2
T2 construct: Human KDR (residues K790-V1356, 55 nM); purchased Eurofins Pharma Discovery Services UK Limited (KinaseProfiler, B-1) and/or CarnaBio (B-2)
T2 sequence (P35968 790-1356): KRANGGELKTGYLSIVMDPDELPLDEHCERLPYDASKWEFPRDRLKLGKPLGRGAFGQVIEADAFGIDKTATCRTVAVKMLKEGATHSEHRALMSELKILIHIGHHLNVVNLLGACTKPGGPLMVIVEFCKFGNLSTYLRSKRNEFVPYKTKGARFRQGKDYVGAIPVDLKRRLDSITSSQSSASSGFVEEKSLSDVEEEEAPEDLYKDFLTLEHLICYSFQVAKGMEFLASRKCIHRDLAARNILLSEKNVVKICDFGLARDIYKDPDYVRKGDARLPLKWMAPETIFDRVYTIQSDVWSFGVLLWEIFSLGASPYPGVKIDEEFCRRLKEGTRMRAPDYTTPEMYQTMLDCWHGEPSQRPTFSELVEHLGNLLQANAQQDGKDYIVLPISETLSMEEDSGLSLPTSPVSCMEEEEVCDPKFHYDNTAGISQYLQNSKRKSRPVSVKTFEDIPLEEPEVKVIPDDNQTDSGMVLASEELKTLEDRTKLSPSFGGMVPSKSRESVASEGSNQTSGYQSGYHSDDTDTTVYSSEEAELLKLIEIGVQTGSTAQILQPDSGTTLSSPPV
In short: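 Radiometric: KDR K790-V1356 (55 nM), MOPS pH 7.0, myelin basic protein, 10 μM [γ-33P]ATP, 40 min at room temperature, filter-bound 33P counted; nine half-log doses, top 1 μM. HTRF: KDR 790-1356, 1 μM biotinylated peptide, ATP at Km (4.0 μM), 40 min, 10 doses. IC50 from logistic fits.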

T1 sequence (P08581 974-1390 limits assumed): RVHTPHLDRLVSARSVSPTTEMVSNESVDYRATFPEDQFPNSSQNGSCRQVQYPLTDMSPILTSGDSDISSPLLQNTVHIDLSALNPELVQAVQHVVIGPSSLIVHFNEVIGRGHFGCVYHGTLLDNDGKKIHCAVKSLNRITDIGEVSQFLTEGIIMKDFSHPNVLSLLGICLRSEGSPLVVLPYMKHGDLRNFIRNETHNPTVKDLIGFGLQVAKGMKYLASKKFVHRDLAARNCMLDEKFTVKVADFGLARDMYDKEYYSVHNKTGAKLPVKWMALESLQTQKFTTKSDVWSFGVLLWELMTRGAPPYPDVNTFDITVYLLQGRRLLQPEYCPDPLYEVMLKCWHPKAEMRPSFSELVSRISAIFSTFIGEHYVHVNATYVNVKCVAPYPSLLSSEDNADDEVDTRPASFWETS

| Compound | IC50 [1] | IC50 [2] |
| --- | --- | --- |
| C=C(C)c1c(C)n(C)c(C)c(C(=O)Nc2ccc(Oc3ccnc4cc(OC)c(OC)nc34)cc2)c1=O [Compound 55, N-[4-[(6,7-Dimethoxy-1,5-naphthyridin-4-yl)oxy]phenyl]-1,2,6-trimethyl-4-oxo-5-prop-1-en-2-ylpyridine-3-carboxamide] | > 300 nM | > 300 nM |
| COCCOc1cnc2c(Oc3ccc(NC(=O)c4c(C)n(C)c(C)c(C5=CCCCC5)c4=O)cc3F)ccnc2c1 [Compound 66, 5-(Cyclohexen-1-yl)-N-[3-fluoro-4-[[7-(2-methoxyethoxy)-1,5-naphthyridin-4-yl]oxy]phenyl]-1,2,6-trimethyl-4-oxopyridine-3-carboxamide] | ≤ 100 nM | > 300 nM |
| COCCOc1cnc2c(Oc3ccc(NC(=O)c4c(C)n(C)c(C)c(C5=CCCC5)c4=O)cc3F)ccnc2c1 [Compound 65, 5-(Cyclopenten-1-yl)-N-[3-fluoro-4-[[7-(2-methoxyethoxy)-1,5-naphthyridin-4-yl]oxy]phenyl]-1,2,6-trimethyl-4-oxopyridine-3-carboxamide] | ≤ 100 nM | 100 to 300 nM |
| COCCOc1cc2nccc(Oc3ccc(NC(=O)c4c(C)n(C)c(C)c(/C=C/C5CCCC5)c4=O)cc3F)c2nc1OC [Compound 54, 5-[(E)-2-Cyclopentylethenyl]-N-[3-fluoro-4-[[6-methoxy-7-(2-methoxyethoxy)-1,5-naphthyridin-4-yl]oxy]phenyl]-1,2,6-trimethyl-4-oxopyridine-3-carboxamide] | 100 to 300 nM | 100 to 300 nM |
| COc1cc2nccc(Oc3ccc(NC(=O)c4c(C)n(C)c(C)c(C5=CCOCC5)c4=O)cc3F)c2nc1OC [Compound 53, 5-(3,6-Dihydro-2H-pyran-4-yl)-N-[4-[(6,7-dimethoxy-1,5-naphthyridin-4-yl)oxy]-3-fluorophenyl]-1,2,6-trimethyl-4-oxopyridine-3-carboxamide] | ≤ 100 nM | > 300 nM |
| C=C(C)c1c(C)n(C)c(C)c(C(=O)Nc2ccc(Oc3ccnc4cc(OC)c(OC)nc34)c(F)c2)c1=O [Compound 52, N-[4-[(6,7-Dimethoxy-1,5-naphthyridin-4-yl)oxy]-3-fluorophenyl]-1,2,6-trimethyl-4-oxo-5-prop-1-en-2-ylpyridine-3-carboxamide] | > 300 nM | > 300 nM |
| COCCOc1cc2nccc(Oc3ccc(NC(=O)c4c(C)n(C)c(C)c(C5=CCCCC5)c4=O)cc3F)c2nc1OC [Compound 58, 5-(Cyclohexen-1-yl)-N-[3-fluoro-4-[[6-methoxy-7-(2-methoxyethoxy)-1,5-naphthyridin-4-yl]oxy]phenyl]-1,2,6-trimethyl-4-oxopyridine-3-carboxamide] | ≤ 100 nM | ≤ 100 nM |

Continued, values first:

| IC50 [1] | IC50 [2] | Compound |
| --- | --- | --- |
| ≤ 100 nM | ≤ 100 nM | COc1nc2c(Oc3ccc(NC(=O)c4c(C)n(C)c(C)c(C5=CCCC5)c4=O)cc3F)ccnc2cc1OCCC1CCC1 [Compound 74, N-[4-[[7-(2-Cyclobutylethoxy)-6-methoxy-1,5-naphthyridin-4-yl]oxy]-3-fluorophenyl]-5-(cyclopenten-1-yl)-1,2,6-trimethyl-4-oxopyridine-3-carboxamide] |
| ≤ 100 nM | > 300 nM | COc1cc2nccc(Oc3ccc(NC(=O)c4c5n(c(C)c(C6=CCOCC6)c4=O)CCOC5)cc3)c2nc1OC [Compound 73, 7-(3,6-Dihydro-2H-pyran-4-yl)-N-[4-[(6,7-dimethoxy-1,5-naphthyridin-4-yl)oxy]phenyl]-6-methyl-8-oxo-3,4-dihydro-1H-pyrido[2,1-c][1,4]oxazine-9-carboxamide] |
| ≤ 100 nM | ≤ 100 nM | COc1cc2nccc(Oc3ccc(NC(=O)c4c5n(cc(C6=CCCCC6)c4=O)CCOC5)cc3F)c2nc1OC [Compound G1-4, 7-(Cyclohexen-1-yl)-N-[4-[(6,7-dimethoxy-1,5-naphthyridin-4-yl)oxy]-3-fluorophenyl]-8-oxo-3,4-dihydro-1H-pyrido[2,1-c][1,4]oxazine-9-carboxamide] |
| ≤ 100 nM | ≤ 100 nM | COc1cc2nccc(Oc3ccc(NC(=O)c4cnc(C)c(C5=CCCC5)c4O)cc3F)c2nc1OC [Compound G1-2, 5-(Cyclopenten-1-yl)-N-[4-[(6,7-dimethoxy-1,5-naphthyridin-4-yl)oxy]-3-fluorophenyl]-4-hydroxy-6-methylpyridine-3-carboxamide hydrochloride] |
| ≤ 100 nM | ≤ 100 nM | COc1cc2nccc(Oc3ccc(NC(=O)c4cnc(C)c(C5=CCCCC5)c4O)cc3F)c2nc1OC [Compound G1-3, 5-(Cyclohexen-1-yl)-N-[4-[(6,7-dimethoxy-1,5-naphthyridin-4-yl)oxy]-3-fluorophenyl]-4-hydroxy-6-methylpyridine-3-carboxamide] |
